Data on four molecules can be found in PMC5359770 (ACS chemical biology, 2016).

Series [1] has as its target APT2 (Homo sapiens, UniProt O95372). It is filed as binding.
The conditions of series [2]: cited from earlier work.
The target in series [3] is APT2 triple mutant L78I/A85S/P86Q (Homo sapiens, UniProt O95372, A85S/L78I/P86Q). It is filed as biochemical.
Series [4] has as its target APT2-L78I (Homo sapiens, UniProt O95372, L78I). The settings on record: ResOAc substrate.

APT2, sequence (O95372 whole entry): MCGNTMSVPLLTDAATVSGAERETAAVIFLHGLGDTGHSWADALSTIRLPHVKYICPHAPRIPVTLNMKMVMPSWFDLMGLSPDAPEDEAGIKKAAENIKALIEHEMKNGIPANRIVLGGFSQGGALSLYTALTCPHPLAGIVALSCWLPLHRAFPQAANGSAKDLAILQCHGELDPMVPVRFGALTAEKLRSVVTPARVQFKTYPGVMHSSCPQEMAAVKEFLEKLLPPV
APT2-L78I, sequence (O95372 whole entry L78I): as the sequence (O95372 whole entry) above, with L78I counted along it
APT2 triple mutant L78I/A85S/P86Q, sequence (O95372 whole entry L78I/A85S/P86Q): as the sequence (O95372 whole entry) above, with L78I, A85S, P86Q counted along it

`CCCCCCCC/C=C\CCCCCCCC(=O)OC[C@@H](O)COP(=O)([O-])OCC[N+](C)(C)C` [1-oleoyl-2-hydroxy-sn-glycero-3-phosphocholine] displayed an IC50 in series [1] of 4.3 ± 0.4 µM. In the case of `COc1ccc(N2CCN(C(=O)c3cc4c(s3)-c3ccccc3[S+]([O-])C4)CC2)cc1` (stereo not drawn) [ML349-sulfoxide], the “binding / inhibition of APT2 (in words)” value in series [1] was “some residual inhibition”.

As to `CCCCCCCC/C=C\CCCCCCCC(=O)O` [oleic acid], the IC50 in series [1] stood at 9.9 ± 0.6 µM. Further, the “critical micelle concentration (CMC)” value in series [2] is listed as 6 µM.

As to ML348, the “potency (in words)” value in series [3] is “improved ML348 potency”. In addition, the Ki in series [4] was found to be 5.8 µM.
